# Experimental data from PubChem BioAssay (NCI).
# “And” between values parts separate entries of the source, which are not always exact repeats. Equal entries are not always repeated.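 Step 1: Grow cells in 96-well plates. Step 2: Expose to compound for 48 hours at 5 concentrations. Step 3: Interpolate endpoints linearly; if unreached, use highest concentration. Abbreviation: GI50, concentration required for 50% inhibition of growth. TGI denotes the concentration required for complete inhibition of growth.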
# How the values were obtained:
# Experiment in all cases: growth of human tumour cells (NCI), 48 h
# 786-0 renal = test system: 786-0 renal
# A498 renal = test system: A498 renal
# COLO 205 colon = test system: COLO 205 colon
# HCC-2998 colon = test system: HCC-2998 colon
# OVCAR-4 ovarian = test system: OVCAR-4 ovarian
# RXF 393 renal = test system: RXF 393 renal
# SF-295 CNS = test system: SF-295 CNS
# U251 CNS = test system: U251 CNS
# UACC-62 melanoma = test system: UACC-62 melanoma
# MDA-MB-435 = test system: MDA-MB-435
SMILES,TGI (786-0 renal) [µM],TGI (A498 renal),TGI (COLO 205 colon) [µM],TGI (HCC-2998 colon) [µM],TGI (OVCAR-4 ovarian) [µM],TGI (RXF 393 renal) [µM],TGI (SF-295 CNS) [µM],TGI (U251 CNS) [µM],TGI (UACC-62 melanoma) [µM],GI50 (786-0 renal) [µM],GI50 (A498 renal),GI50 (COLO 205 colon) [µM],GI50 (MDA-MB-435) [µM],TGI (MDA-MB-435) [µM],GI50 (OVCAR-4 ovarian) [µM],GI50 (RXF 393 renal) [µM],GI50 (SF-295 CNS) [µM],GI50 (U251 CNS) [µM],GI50 (UACC-62 melanoma) [µM],GI50 (HCC-2998 colon) [µM]
CC(=O)Nc1ccc(OCC(O)CO)cc1 (stereo not drawn),70.2,> 100 µM,> 100,> 100,> 100,> 100,> 100,> 100,> 100,–,–,–,–,–,–,–,–,–,–,–
N#CC1([N+](=O)[O-])C=C1c1ccccc1 (stereo not drawn),> 100,–,> 100,–,> 100,–,> 100,> 100,66.3,–,–,–,–,–,–,–,–,–,–,–
CC(=O)OC1(C#N)CC2OC1C1NC21 (stereo not drawn),> 100,> 100 µM,> 100,> 100,> 100,> 100,–,> 100,> 100,–,–,–,–,–,–,–,–,–,–,–
Nc1cc(N)c2nc(-c3ccccc3)c(Oc3ccc(Cl)c(Cl)c3)nc2c1,41.2,12.3 µM,67.8,–,> 100,85.4,31,31.9,48.2,19.4,0.442 µM,20.6,5.03,21.1,33,25.2,13.9,12.1,16.3,–
CCCCCCC(=O)CC(=O)C(=O)Nc1ccccc1C,> 100,> 100 µM,> 100,> 100,> 100,> 100,> 100,> 100,> 100,–,–,–,–,–,–,–,–,–,–,–
O=C1OC(=O)C2C1C1C(c3ccccc3)=C(c3ccccc3)C2(O)C2C(=O)OC(=O)C12 (stereo not drawn),> 100,> 100 µM,> 100,> 100,> 100,–,> 100,> 100,> 100,–,–,–,–,–,–,–,–,–,–,–
CCOc1cc[n+](C(=C=[N-])C#N)cc1,> 100,> 100 µM,> 100,> 100,> 100,> 100,> 100,> 100,> 100,–,–,–,–,–,–,–,–,–,–,–
CC(=O)CC(=O)ON(C)C(=O)Cc1ccccc1,> 100,–,> 100,> 100,> 100,> 100,> 100,> 100,> 100,–,–,–,–,–,–,–,–,–,–,–
O=S1Cc2ccccc2CSS1 (stereo not drawn),29.1,> 100 µM,27.3,73.7,31.7,13.8,37.9,31.9,26.5,–,–,–,–,–,–,–,–,–,–,–
CC1CCC2[C@@H](C)COC3O[C@]4(C)CCC1C32OO4 (stereo partly drawn),> 100,> 100 µM,> 100,> 100,> 100,> 100,> 100,> 100,> 100,–,–,–,–,–,–,–,–,–,–,–
NC(=S)N=Nc1c(O)[nH]c2ccccc12,296,94.9 µM and 503 µM,> 1000,–,> 1000,262,498,404,497,142,30.1 µM and 206 µM,–,925,> 1000,239,134,197,188,209,–
COc1c(OC2OC(CO)C(O)C(O)C2O)cc2c(c1OC)-c1ccc(OC)c(=O)cc1[C@@H](NC(C)=O)CC2 (stereo partly drawn),> 100,> 100 µM,> 100,> 100,> 100,> 90.4,> 100,> 100,> 100,–,–,–,–,–,–,–,–,–,–,–
Nc1ncnc2c1ncn2COC/C=C/I,> 100,> 100 µM,> 100,> 100,> 100,> 100,> 100,> 100,> 100,–,–,–,–,–,–,–,–,–,–,–
CCOc1ccccc1NC(=O)C(=O)c1c(O)c2ccc(O)cc2oc1=O,> 100,> 100 µM,> 100,> 100,> 100,> 100,> 100,> 100,> 100,–,–,–,–,–,–,–,–,–,–,–
N#CC12CC3(CCC1CCC1(C2)OCCO1)OCCO3 (stereo not drawn),> 100,> 100 µM,> 100,> 100,> 100,> 100,> 100,> 100,> 100,–,–,–,–,–,–,–,–,–,–,–
Cc1ccc(NC(=O)CC2C(=O)Nc3ccccc3S2(=O)=O)cc1C (stereo not drawn),> 100,> 100 µM,–,> 100,> 100,> 100,> 100,> 100,> 100,–,–,–,–,–,–,–,–,–,–,–
C[C@H](c1ccc(Cl)cc1[N+](=O)[O-])N1C(=O)c2cc(I)ccc2NC(=O)[C@H]1c1ccc(Cl)cc1,> 100,> 100 µM,> 100,–,> 100,> 100,> 100,> 100,> 100,> 100,> 100 µM,> 100,> 100,> 100,7.08,9.07,8.18,> 100,> 100,–
COc1ccc(CNC(=O)c2c(C)n([O-])c3cc(F)c(F)cc3[n+]2=O)cc1,30.6,29.6 µM,24.3,5.77,26.9,23.4,–,25.5,28.5,16.9,16.1 µM,11.2,–,–,13.7,8.2,–,12.8,15,2.07
COC(=O)C(C(=O)C(=O)Nc1ccc(N)cc1[N+](=O)[O-])c1nc2ccc(Cl)cc2[nH]c1=O (stereo not drawn),> 100,> 100 µM,> 100,> 100,> 100,> 100,> 100,–,> 100,–,–,–,–,–,–,–,–,–,–,–
Cc1c(C(=O)Nc2ccc(Cl)cc2)nc(N)nc1-c1cccc(Cl)c1,> 100,–,> 100,> 100,> 100,> 100,> 100,> 100,> 100,–,–,–,–,–,–,–,–,–,–,–
CC(=O)Nc1cc(CN2CCCCC2)c(O)c2ncccc12,40.9,> 100 µM,> 100,–,> 100,> 100,> 100,42,46.3,–,–,–,–,> 100,–,–,–,–,–,–
